The IC50 is the midpoint of a concentration-inhibition curve.

This experiment deals with aorta rings. The experiment in a line: Vasorelaxant action in vitro (phenylephrine-contracted rabbit aorta rings, organ bath). As to conditions: Oryctolagus cuniculus; concentration needed to reduce the phenylephrine contraction of rabbit aorta rings by 50%. As to the method: B-1. Vasorelaxant Action In Vitro
Rabbits are stunned by a blow to the neck and exsanguinated. The aorta is removed, freed from adhering tissue and divided into rings of width 1.5 mm, which are placed individually under prestress into 5 ml organ baths with carbogen-sparged Krebs-Henseleit solution at 37° C. having the following composition (each mM): sodium chloride 119; potassium chloride: 4.8; calcium chloride dihydrate: 1; magnesium sulfate heptahydrate: 1.4; potassium dihydrogenphosphate: 1.2; sodium hydrogencarbonate: 25; glucose: 10. The contractile force is determined with Statham UC2 cells, amplified and digitalized using A/D transducers (DAS-1802 HC, Keithley Instruments Munich), and recorded in parallel on linear recorders. To obtain a contraction, phenylephrine is added to the bath cumulatively in increasing concentration. After several control cycles, the substance to be studied is added in increasing dosage each time in every further run, and the magnitude of the contraction is compared with the magnitude of the contraction attained in the last preceding run. This is used to calculate the concentration needed to reduce the magnitude of the control value by 50% (IC50 value). The standard administration volume is 5 μl; the DMSO content in the bath solution corresponds to 0.1%.
With `O=c1[nH]c(=O)c2cnc(-c3nn(Cc4ccccc4F)c4ncccc34)nc2[nH]1` [Example 150, 7-[1-(2-Fluorobenzyl)-1H-pyrazolo[3,4-b]pyridin-3-yl]pyrimido[4,5-d]pyrimidine-2,4(1H,3H)-dione], the IC50 was determined as 479 nM.
The same measure for `Cn1c(=O)[nH]c2nc(-c3nn(Cc4ccccc4F)c4ncccc34)nc(N3CCC3)c21` [Example 112, 6-(Azetidin-1-yl)-2-[1-(2-fluorobenzyl)-1H-pyrazolo[3,4-b]pyridin-3-yl]-7-methyl-7,9-dihydro-8H-purin-8-one]: 1350 nM; for `CSc1nc2c(N)nc(-c3nn(Cc4ccccc4F)c4ncccc34)nc2[nH]1` [Example 29, 2-[1-(2-Fluorobenzyl)-1H-pyrazolo[3,4-b]pyridin-3-yl]-8-(methylsulfanyl)-7H-purin-6-amine]: 31 nM.
In turn, `O=c1[nH]c2nc(-c3nn(Cc4ccccc4F)c4ncccc34)ncc2n1C1CCN(C2CC2)CC1` [Example 104, 7-(1-Cyclopropylpiperidin-4-yl)-2-[1-(2-fluorobenzyl)-1H-pyrazolo[3,4-b]pyridin-3-yl]-7,9-dihydro-8H-purin-8-one] displayed an IC50 of 40 nM.
The same measure for `Cn1c(=O)[nH]c2nc(-c3nn(Cc4ccccc4F)c4ncccc34)nc(C#CC(C)(C)O)c21` [Example 135, 2-[1-(2-Fluorobenzyl)-1H-pyrazolo[3,4-b]pyridin-3-yl]-6-(3-hydroxy-3-methylbut-1-yn-1-yl)-7-methyl-7,9-dihydro-8H-purin-8-one]: 264 nM; for `Nc1nc(-c2nn(Cc3ccccc3F)c3ncccc23)nc2[nH]c(=S)[nH]c12` [Example 28, 6-Amino-2-[1-(2-fluorobenzyl)-1H-pyrazolo[3,4-b]pyridin-3-yl]-7,9-dihydro-8H-purine-8-thione]: 800 nM.
The same measure for `Nc1nc(-c2nn(Cc3ccccc3F)c3ncc(F)cc23)nc2[nH]c(=O)n(CC(F)(F)F)c12` [Example 62, 6-Amino-2-[5-fluoro-1-(2-fluorobenzyl)-1H-pyrazolo[3,4-b]pyridin-3-yl]-7-(2,2,2-trifluoroethyl)-7,9-dihydro-8H-purin-8-one]: 114 nM; for `Nc1nc(-c2nn(Cc3ccccc3F)c3ncccc23)nc2sccc12` [Example 12, 2-[1-(2-Fluorobenzyl)-1H-pyrazolo[3,4-b]pyridin-3-yl]thieno[2,3-d]pyrimidin-4-amine]: 284 nM.
The same measure for `CNc1nc(-c2nn(Cc3ccccc3F)c3ncccc23)nc2[nH]c(=O)n(CC(F)F)c12` [Example 103, 7-(2,2-Difluoroethyl)-2-[1-(2-fluorobenzyl)-1H-pyrazolo[3,4-b]pyridin-3-yl]-6-(methylamino)-7,9-dihydro-8H-purin-8-one]: 658 nM; for `COC(=O)N1NC(=O)Nc2nc(-c3nn(Cc4ccccc4F)c4ncccc34)nc(N)c21` [Example 105, Methyl 8-amino-6-[1-(2-fluorobenzyl)-1H-pyrazolo[3,4-b]pyridin-3-yl]-3-oxo-3,4-dihydropyrimido[4,5-e][1,2,4]triazine-1(2H)-carboxylate]: 402 nM.
In turn, `CCc1nc(=O)c2cnc(-c3nn(Cc4ccccc4F)c4ncccc34)nc2[nH]1` [Example 153, 2-Ethyl-7-[1-(2-fluorobenzyl)-1H-pyrazolo[3,4-b]pyridin-3-yl]pyrimido[4,5-d]pyrimidin-4(1H)-one] registered a 50% inhibitory concentration (IC50) of 1300 nM.
The same measure for `O=c1[nH]c2nc(-c3nn(Cc4ccccc4F)c4ncccc34)ncc2c(=O)n1CC(F)(F)F` [Example 149, 7-[1-(2-Fluorobenzyl)-1H-pyrazolo[3,4-b]pyridin-3-yl]-3-(2,2,2-trifluoroethyl)pyrimido[4,5-d]pyrimidine-2,4(1H,3H)-dione]: 462 nM; for `Nc1nc(-c2nn(Cc3ccccc3F)c3ncccc23)nc2[nH]nnc12` [Example 53, 5-[1-(2-Fluorobenzyl)-1H-pyrazolo[3,4-b]pyridin-3-yl]-3H-[1,2,3]triazolo[4,5-d]pyrimidin-7-amine]: 424 nM.
The same measure for `CC(C)(O)Cn1c(=O)[nH]c2nc(-c3nn(Cc4ccccc4F)c4ncccc34)nc(N)c21` [Example 2, 6-Amino-2-[1-(2-fluorobenzyl)-1H-pyrazolo[3,4-b]pyridin-3-yl]-7-(2-hydroxy-2-methylpropyl)-7,9-dihydro-8H-purin-8-one]: 49 nM; for `COC(=O)N1CC(=O)Nc2nc(-c3nn(Cc4ccccc4F)c4ncccc34)nc(N)c21` [Example 98, Methyl 4-amino-2-[1-(2-fluorobenzyl)-1H-pyrazolo[3,4-b]pyridin-3-yl]-7-oxo-7,8-dihydropteridine-5(6H)-carboxylate]: 71 nM; for `Nc1nc(-c2nn(Cc3ccccc3F)c3ncccc23)nc2ncn(CC(F)(F)F)c12` [Example 60, 2-[1-(2-Fluorobenzyl)-1H-pyrazolo[3,4-b]pyridin-3-yl]-7-(2,2,2-trifluoroethyl)-7H-purin-6-amine]: 199 nM.
